Data reported in patent US12377104B1, “Methods for treating a fatty liver disease” (Madrigal Pharmaceuticals, Inc., priority 2024, dated 2025).

Columns and labels:
[1] = system: adults with biopsy-confirmed NASH and fibrosis stage F1B, F2, or F3; experiment: MAESTRO-NASH: sensitivity analyses of primary endpoints (consensus, multiple imputation, GEE, tipping point, paired biopsies); type: in vivo, human; details: for Fibrosis improvement at Week 52, % / Fibrosis improvement at Week 52, no. / NASH resolution at Week 52, % / NASH resolution at Week 52, no.: GEE analysis; for Difference in percentage of responders, CMH, resmetirom group - placebo, NASH resolution / Difference in percentage of responders, CMH, resmetirom group - placebo, fibrosis improvement / OR of resmetirom group to placebo, NASH resolution / OR of resmetirom group to placebo, fibrosis improvement: GEE model
Description: Consensus reads of digitized images of glass slides by the two central pathologists were conducted in cases where the two pathologists scores disagreed as to whether there was a response for either NASH resolution (ballooning 0,1; 2-point NAS reduction and no worsening of fibrosis) OR ≥1 stage fibrosis reduction with no worsening of NAS (primary endpoints) OR a 2-stage reduction in fibrosis with no worsening of NAS. The study pathologists remained blinded to all clinical data, patient ID, and slide/image identity or time of biopsy. Study personnel remain blinded to patient level data and detailed group analyses. In total 387 total assessments took place requiring four Zoom meetings between the pathologists.
Tipping Point Analyses: This analysis imputed missing placebo responses for NASH resolution (in increments from 0% to 100% placebo imputation) and fibrosis response (in increments from 0% up to 35% placebo imputation) at Week 52 as successful responses in order to determine how many missing responses (which were counted in the primary analysis labels as non-responders) could be imputed before losing statistical significance.
Multiple Imputation Analysis: Multiple imputation analyses were conducted where data for patients with missing response at Week 52 were imputed under the missing at random assumption. Data for patients with missing response data at Week 52 were imputed under the missing at random assumption by running a simulation (100 times) which produces a correlated pair of binary 0/1 data for each patient that represents the patient's response status for each pathologist. The statistics were then calculated for each imputation using the same approach as for the primary endpoint. The normalized results from each dataset were combined using Rubin's rule. (Table 17).
General Estimating Equation (GEE) Model Analysis: A generalized estimation equation (GEE) analysis was performed as a sensitivity analysis. This approach treated the biopsy scores from the two pathologists as repeated measures (i.e. correlated binary outcomes) within a patient. Baseline diabetes status, fibrosis stage and interaction term between pathologist and treatment were also included in the model.
Summary of Observed Cases Using In-window Week 52 Paired Liver Biopsies: Supportive analyses were performed on patients with in-window paired Week 52 biopsies. Missing Week 52 biopsies were not imputed.

[2] = human, in vivo
Description: Following once daily doses, steady state was typically reached within 3 to 6 days of dosing.

[3] = 80 mg (N = 258), in window including a baseline and Week 52 biopsy
[4] = 80 mg (n = 316), (1, 1) = responder per pathologist A and B
[5] = 80 mg (n = 316), Week 52, tipping point analysis, active patients with missing response = non-responders
[6] = 80 mg, (0, 0) = non-responder per both pathologists
[7] = 80 mg, (0, 1) = responder per pathologist B only
[8] = 80 mg, (1, 0) = responder per pathologist A only
[9] = 100 mg (N = 248), in window including a baseline and Week 52 biopsy
[10] = 100 mg (n = 321), (1, 1) = responder per pathologist A and B
[11] = 100 mg (n = 321), Week 52, tipping point analysis, active patients with missing response = non-responders
[12] = 100 mg, (0, 0) = non-responder per both pathologists
[13] = 100 mg, (0, 1) = responder per pathologist B only
[14] = 100 mg, (1, 0) = responder per pathologist A only
[15] = in window including a baseline and Week 52 biopsy
[16] = in-window including a baseline and Week 52 biopsy
[17] = tipping point, Placebo-0% imputed responders (Primary Analysis)
[18] = tipping point, Placebo-10% imputed responders
[19] = tipping point, Placebo-20% imputed responders
[20] = tipping point, Placebo-25% imputed responders
[21] = tipping point, Placebo-30% imputed responders
[22] = tipping point, Placebo-35% imputed responders
[23] = tipping point, Placebo-60% imputed responders
[24] = tipping point, Placebo-67% imputed responders
[25] = tipping point, Placebo-90% imputed responders
[26] = tipping point, Placebo-100% imputed responders

## CC(C)c1cc(Oc2c(Cl)cc(-n3nc(C#N)c(=O)[nH]c3=O)cc2Cl)n[nH]c1=O [Resmetirom, 2-(3,5-dichloro-4-((5-isopropyl-6-oxo-1,6-dihydropyridazin-3-yl)oxy)phenyl)-3,5-dioxo-2,3,4,5-tetrahydro-1,2,4-triazine-6-carbonitrile]
[1]; [3]
  % Response, Fibrosis improvement: 29.7%
  % Response, NASH resolution: 31.8%
[1]; 80 mg (N = 258), in-window including a baseline and Week 52 biopsy
  % Response, NASH resolution OR fibrosis improvement: 42.2%
[1]; [4]
  Fibrosis improvement at Week 52, %: (16.5) %
  Fibrosis improvement at Week 52, no.: 52
  NASH resolution at Week 52, %: (19.6) %
  NASH resolution at Week 52, no.: 62
[1]; [5]
  % Response, Fibrosis improvement: 24.2%
  % Response, NASH resolution: 25.9%
[1]; 80 mg, Week 52
  Fibrosis improvement, Consensus (sensitivity), % Difference from PBO: 12.2%
  Fibrosis improvement, Consensus (sensitivity), % Response: 24.4%
  Fibrosis improvement, Multiple imputation (sensitivity), % Difference from PBO: 11.4%
  Fibrosis improvement, Multiple imputation (sensitivity), % Response: 29.2%
  NASH resolution, Consensus (sensitivity), % Difference from PBO: 16.8%
  NASH resolution, Consensus (sensitivity), % Response: 24.4%
  NASH resolution, Multiple imputation (sensitivity), % Difference from PBO: 17.7%
  NASH resolution, Multiple imputation (sensitivity), % Response: 31.0%
  Difference in percentage of responders, CMH, resmetirom group - placebo, NASH resolution: 17.5
  Difference in percentage of responders, CMH, resmetirom group - placebo, fibrosis improvement: 9.7
  OR of resmetirom group to placebo, NASH resolution: 3.5
  OR of resmetirom group to placebo, fibrosis improvement: 2.0
[1]; [6]
  Fibrosis improvement at Week 52, %: (68.0) %
  Fibrosis improvement at Week 52, no.: 215
  NASH resolution at Week 52, %: (67.7) %
  NASH resolution at Week 52, no.: 214
[1]; [7]
  Fibrosis improvement at Week 52, %: (8.9) %
  Fibrosis improvement at Week 52, no.: 28
  NASH resolution at Week 52, %: (5.1) %
  NASH resolution at Week 52, no.: 16
[1]; [8]
  Fibrosis improvement at Week 52, %: (6.6) %
  Fibrosis improvement at Week 52, no.: 21
  NASH resolution at Week 52, %: (7.6) %
  NASH resolution at Week 52, no.: 24
[1]; [9]
  % Response, Fibrosis improvement: 33.5%
  % Response, NASH resolution: 38.7%
[1]; 100 mg (N = 248), in-window including a baseline and Week 52 biopsy
  % Response, NASH resolution OR fibrosis improvement: 50.4%
[1]; [10]
  Fibrosis improvement at Week 52, %: (15.9) %
  Fibrosis improvement at Week 52, no.: 51
  NASH resolution at Week 52, %: (19.3) %
  NASH resolution at Week 52, no.: 62
[1]; [11]
  % Response, Fibrosis improvement: 25.9%
  % Response, NASH resolution: 29.9%
[1]; 100 mg, Week 52
  Fibrosis improvement, Consensus (sensitivity), % Difference from PBO: 13.4%
  Fibrosis improvement, Consensus (sensitivity), % Response: 25.5%
  Fibrosis improvement, Multiple imputation (sensitivity), % Difference from PBO: 14.1%
  Fibrosis improvement, Multiple imputation (sensitivity), % Response: 31.9%
  NASH resolution, Consensus (sensitivity), % Difference from PBO: 20.7%
  NASH resolution, Consensus (sensitivity), % Response: 27.7%
  NASH resolution, Multiple imputation (sensitivity), % Difference from PBO: 23.2%
  NASH resolution, Multiple imputation (sensitivity), % Response: 36.0%
  Difference in percentage of responders, CMH, resmetirom group - placebo, NASH resolution: 21.3
  Difference in percentage of responders, CMH, resmetirom group - placebo, fibrosis improvement: 11.0
  OR of resmetirom group to placebo, NASH resolution: 4.2
  OR of resmetirom group to placebo, fibrosis improvement: 2.1
[1]; [12]
  Fibrosis improvement at Week 52, %: (64.2) %
  Fibrosis improvement at Week 52, no.: 206
  NASH resolution at Week 52, %: (59.5) %
  NASH resolution at Week 52, no.: 191
[1]; [13]
  Fibrosis improvement at Week 52, %: (9.3) %
  Fibrosis improvement at Week 52, no.: 30
  NASH resolution at Week 52, %: (4.0) %
  NASH resolution at Week 52, no.: 13
[1]; [14]
  Fibrosis improvement at Week 52, %: (10.6) %
  Fibrosis improvement at Week 52, no.: 34
  NASH resolution at Week 52, %: (17.1) %
  NASH resolution at Week 52, no.: 55
[1]; [15]
  % Difference Resmetirom 80 mg from PBO, Fibrosis improvement: 13.6%
  % Difference Resmetirom 80 mg from PBO, NASH resolution: 20.9%
  % Difference Resmetirom 100 mg from PBO, Fibrosis improvement: 17.2%
  % Difference Resmetirom 100 mg from PBO, NASH resolution: 28.6%
[1]; [16]
  % Difference Resmetirom 80 mg from PBO, NASH resolution OR fibrosis improvement: 23.1%
  % Difference Resmetirom 100 mg from PBO, NASH resolution OR fibrosis improvement: 31.2%
[1]; [17]
  % Difference Resmetirom 80 mg from PBO, Fibrosis improvement: 10.2%
  % Difference Resmetirom 80 mg from PBO, NASH resolution: 16.4%
  % Difference Resmetirom 100 mg from PBO, Fibrosis improvement: 11.8%
  % Difference Resmetirom 100 mg from PBO, NASH resolution: 20.7%
[1]; [18]
  % Difference Resmetirom 80 mg from PBO, Fibrosis improvement: 8.8%
  % Difference Resmetirom 100 mg from PBO, Fibrosis improvement: 10.4%
[1]; [19]
  % Difference Resmetirom 80 mg from PBO, Fibrosis improvement: 7.5%
  % Difference Resmetirom 100 mg from PBO, Fibrosis improvement: 9.1%
[1]; [20]
  % Difference Resmetirom 80 mg from PBO, Fibrosis improvement: 6.9%
  % Difference Resmetirom 100 mg from PBO, Fibrosis improvement: 8.5%
[1]; [21]
  % Difference Resmetirom 80 mg from PBO, Fibrosis improvement: 6.2%
  % Difference Resmetirom 80 mg from PBO, NASH resolution: 12.4%
  % Difference Resmetirom 100 mg from PBO, Fibrosis improvement: 7.8%
  % Difference Resmetirom 100 mg from PBO, NASH resolution: 16.7%
[1]; [22]
  % Difference Resmetirom 80 mg from PBO, Fibrosis improvement: 5.5%
  % Difference Resmetirom 100 mg from PBO, Fibrosis improvement: 7.1%
[1]; [23]
  % Difference Resmetirom 80 mg from PBO, NASH resolution: 8.3%
  % Difference Resmetirom 100 mg from PBO, NASH resolution: 12.7%
[1]; [24]
  % Difference Resmetirom 80 mg from PBO, NASH resolution: 7.4%
  % Difference Resmetirom 100 mg from PBO, NASH resolution: 11.7%
[1]; [25]
  % Difference Resmetirom 80 mg from PBO, NASH resolution: 4.2%
  % Difference Resmetirom 100 mg from PBO, NASH resolution: 18.6%
[1]; [26]
  % Difference Resmetirom 80 mg from PBO, NASH resolution: 2.6%
  % Difference Resmetirom 100 mg from PBO, NASH resolution: 7.0%
[2]
  exposure increase following once daily dosing: 1.5- to 3 fold
  exposure vs dose: greater than dose proportional
  steady state exposure vs dose: dose proportional
  time to steady state: 3 to 6 days
